Assay results reported in ChEMBL document CHEMBL5543147, “Discovery and Characterization of a Novel Cereblon-Recruiting PRC1 Bridged PROTAC Degrader” (J Med Chem, 2024).
Active and inactive are the calls of the source. The rule behind the calls is not given here.

Assays:
[1] = molecular target: T1, Protein cereblon/E3 ubiquitin-protein ligase RING2 (Homo sapiens, UniProt Q96SW2+Q99496); experiment: PROTAC activity at CRBN/RING1B in human 786-0 cells with defective VHL assessed as degradation of RING1B protein expression at 10 uM incubated for 24 hrs by Western blotting analysis; format: cell-based
PC-3M [2] = experiment: Induction of PRC1 degradation in human PC-3M cells assessed as reduction of H2AK119ub chromatin mark at 0.2 to 5 uM incubated for 24 hrs by Western blotting analysis; format: cell-based; conditions: dose 0.2-5 µM
PC-3M [3] = experiment: Induction of PRC2 degradation in human PC-3M cells assessed as reduction of H3K27me3 chromatin mark at 0.2 to 5 uM incubated for 24 hrs by Western blotting analysis; format: cell-based; conditions: dose 0.2-5 µM
MDA-MB-468 [4] = experiment: Induction of PRC2 degradation in human MDA-MB-468 cells assessed as reduction of H3K27me3 chromatin mark at 0.2 to 5 uM incubated for 24 hrs by Western blotting analysis; format: cell-based; conditions: dose 0.2-5 µM
K562 [5] = experiment: Antiproliferative activity against human K562 cells assessed as increase in HoxA mRNA expression at 10 uM incubated for 24 hrs by RT-qPCR analysis; format: functional, cell-based
K562 [6] = experiment: Antiproliferative activity against human K562 cells assessed as cell growth inhibition incubated for 7 days by WST-8 assay; format: functional; conditions: time 7.0 day
K562 [7] = experiment: Induction of PRC2 degradation in human K562 cells assessed as reduction of H3K27me3 chromatin mark at 1 to 10 uM incubated for 24 hrs by Western blotting analysis; format: cell-based; conditions: dose 1-10 µM
[8] = molecular target: T2, von Hippel-Lindau disease tumor suppressor/Polycomb complex protein BMI-1 (Homo sapiens) (UniProt P40337+P35226); experiment: PROTAC activity at […] in human 786-0 cells with defective VHL assessed as degradation of BMI1 protein expression at 10 uM incubated for 24 hrs by Western blotting analysis; format: cell-based
[9] = molecular target: T1, Protein cereblon/E3 ubiquitin-protein ligase RING2; experiment: PROTAC activity at CRBN/RING1B in human K562 cells assessed as degradation of RING1B protein expression at 1 to 10 uM incubated for 24 hrs by Western blotting analysis; format: cell-based; conditions: dose 1-10 µM
K562 [10] = experiment: Antiproliferative activity against human K562 cells assessed as increase in HoxD mRNA expression at 10 uM incubated for 24 hrs by RT-qPCR analysis; format: functional, cell-based
MDA-MB-468 [11] = experiment: Induction of PRC1 degradation in human MDA-MB-468 cells assessed as reduction of H2AK119ub chromatin mark at 0.2 to 5 uM incubated for 24 hrs by Western blotting analysis; format: cell-based; conditions: dose 0.2-5 µM
[12] = molecular target: T2, von Hippel-Lindau disease tumor suppressor/Polycomb complex protein BMI-1 (Homo sapiens); experiment: PROTAC activity at […] in human K562 cells assessed as degradation of BMI1 protein expression at 1 to 10 uM incubated for 24 hrs by Western blotting analysis; format: cell-based; conditions: dose 1-10 µM
[13] = molecular target: Protein cereblon/Histone-lysine N-methyltransferase EZH2 (Homo sapiens) (UniProt Q15910+Q96SW2); experiment: PROTAC activity at CRBN/EZH2 in human K562 cells assessed as degradation of EZH2 protein expression at 0.1 to 10 uM incubated for 24 hrs by Western blotting analysis; format: cell-based; conditions: dose 0.1-10 µM
[14] = molecular target: T1, Protein cereblon/E3 ubiquitin-protein ligase RING2; experiment: PROTAC activity at CRBN/RING1B in human K562 cells assessed as degradation of RING1B protein expression at 0.1 to 10 uM incubated for 24 hrs by Western blotting analysis; format: cell-based; conditions: dose 0.1-10 µM
[15] = molecular target: Protein cereblon/Polycomb complex protein BMI-1 (Homo sapiens, UniProt Q96SW2+P35226); experiment: PROTAC activity at […] in human K562 cells assessed as degradation of BMI1 protein expression at 0.1 to 10 uM incubated for 24 hrs by Western blotting analysis; format: cell-based; conditions: dose 0.1-10 µM
[16] = molecular target: Protein cereblon/Polycomb protein EED (Homo sapiens, UniProt O75530+Q96SW2); experiment: PROTAC activity at CRBN/EED in human K562 cells assessed as degradation of EED protein expression at 0.1 to 10 uM incubated for 24 hrs by Western blotting analysis; format: cell-based; conditions: dose 0.1-10 µM
K562 [17] = experiment: Induction of PRC2 degradation in human K562 cells assessed as reduction of H3K27me3 chromatin mark at 0.1 to 10 uM incubated for 24 hrs by Western blotting analysis; format: cell-based; conditions: dose 0.1-10 µM
[18] = molecular target: Protein cereblon/Polycomb protein SUZ12 (Homo sapiens) (UniProt Q15022+Q96SW2); experiment: PROTAC activity at CRBN/SUZ12 in human K562 cells assessed as degradation of SUZ12 protein expression at 0.1 to 10 uM incubated for 24 hrs by Western blotting analysis; format: cell-based; conditions: dose 0.1-10 µM
K562 [19] = experiment: Induction of PRC1 degradation in human K562 cells assessed as reduction of H2AK119ub chromatin mark at 0.1 to 10 uM incubated for 24 hrs by Western blotting analysis; format: cell-based; conditions: dose 0.1-10 µM
[20] = molecular target: von Hippel-Lindau disease tumor suppressor/Histone-lysine N-methyltransferase EZH2 (Homo sapiens, UniProt Q15910+P40337); experiment: PROTAC activity at VHL/EZH2 in human KARPAS-422 cells assessed as degradation of EZH2 protein expression by Western blotting analysis; format: cell-based
[21] = molecular target: von Hippel-Lindau disease tumor suppressor/Polycomb protein EED (Homo sapiens, UniProt O75530+P40337); experiment: PROTAC activity at VHL/EED in human KARPAS-422 cells assessed as degradation of EED protein expression by Western blotting analysis; format: cell-based
786-0 [22] = experiment: Induction of PRC2 degradation in human 786-0 cells with defective VHL assessed as reduction of H3K27me3 chromatin mark at 10 uM incubated for 24 hrs by Western blotting analysis; format: cell-based
Polycomb protein EED = Polycomb protein EED (Homo sapiens, UniProt O75530); experiment: Binding affinity to EED (75 to 441 residues) (unknown origin) expressed in Escherichia coli BL21 (DE3) assessed as dissociation constant by isothermal titration calorimetry
786-0 [23] = experiment: Induction of PRC1 degradation in human 786-0 cells with defective VHL assessed as reduction of H2AK119ub chromatin mark at 10 uM incubated for 24 hrs by Western blotting analysis; format: cell-based
786-0 [24] = experiment: Antiproliferative activity against human 786-0 cells assessed as inhibition of cell growth at 0.5 to 30 uM incubated for 7 days by WST-8 assay; format: functional, cell-based; conditions: dose 0.5-30 µM, time 7.0 day
K562 [25] = experiment: Induction of PRC1 degradation in human K562 cells assessed as reduction of H2AK119ub chromatin mark at 1 to 10 uM incubated for 24 hrs by Western blotting analysis; format: cell-based; conditions: dose 1-10 µM

Chain of Protein cereblon/Polycomb protein SUZ12 (Homo sapiens) (Q15022 whole entry, looked up): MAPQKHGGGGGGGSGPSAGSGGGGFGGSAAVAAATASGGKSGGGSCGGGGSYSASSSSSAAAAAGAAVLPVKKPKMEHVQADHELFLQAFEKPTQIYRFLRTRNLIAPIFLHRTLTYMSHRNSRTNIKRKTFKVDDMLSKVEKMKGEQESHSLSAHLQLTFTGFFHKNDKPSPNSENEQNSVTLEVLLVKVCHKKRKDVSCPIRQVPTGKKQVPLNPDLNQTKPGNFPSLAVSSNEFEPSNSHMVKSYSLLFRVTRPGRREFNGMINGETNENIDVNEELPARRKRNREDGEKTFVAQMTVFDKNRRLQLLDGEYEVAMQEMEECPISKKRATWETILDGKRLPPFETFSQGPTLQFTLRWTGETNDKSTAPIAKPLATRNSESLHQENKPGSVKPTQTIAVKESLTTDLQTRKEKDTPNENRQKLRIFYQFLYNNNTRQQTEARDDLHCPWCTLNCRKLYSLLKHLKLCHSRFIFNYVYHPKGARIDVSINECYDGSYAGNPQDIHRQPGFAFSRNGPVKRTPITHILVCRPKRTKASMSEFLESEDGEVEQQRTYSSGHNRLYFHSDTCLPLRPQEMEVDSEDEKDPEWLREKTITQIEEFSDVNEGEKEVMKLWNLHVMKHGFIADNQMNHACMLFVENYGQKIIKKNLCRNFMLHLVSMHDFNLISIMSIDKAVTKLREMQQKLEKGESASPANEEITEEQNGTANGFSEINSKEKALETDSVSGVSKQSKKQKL
Chain of Protein cereblon/Polycomb protein SUZ12 (Homo sapiens) (Q96SW2 whole entry, looked up): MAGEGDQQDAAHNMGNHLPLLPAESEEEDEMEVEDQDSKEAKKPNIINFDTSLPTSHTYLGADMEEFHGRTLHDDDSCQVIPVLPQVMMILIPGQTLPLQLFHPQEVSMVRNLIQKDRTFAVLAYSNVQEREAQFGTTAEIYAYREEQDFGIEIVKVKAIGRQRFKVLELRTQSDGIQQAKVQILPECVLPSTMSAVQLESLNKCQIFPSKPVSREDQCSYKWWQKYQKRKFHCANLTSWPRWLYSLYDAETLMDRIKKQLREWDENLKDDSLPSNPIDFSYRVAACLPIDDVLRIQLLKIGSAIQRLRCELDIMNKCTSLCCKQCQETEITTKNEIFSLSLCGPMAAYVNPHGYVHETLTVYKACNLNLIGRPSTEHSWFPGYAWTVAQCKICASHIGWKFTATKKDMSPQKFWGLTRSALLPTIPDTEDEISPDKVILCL
Chain of Protein cereblon/Polycomb protein EED (O75530 2-441 limits assumed): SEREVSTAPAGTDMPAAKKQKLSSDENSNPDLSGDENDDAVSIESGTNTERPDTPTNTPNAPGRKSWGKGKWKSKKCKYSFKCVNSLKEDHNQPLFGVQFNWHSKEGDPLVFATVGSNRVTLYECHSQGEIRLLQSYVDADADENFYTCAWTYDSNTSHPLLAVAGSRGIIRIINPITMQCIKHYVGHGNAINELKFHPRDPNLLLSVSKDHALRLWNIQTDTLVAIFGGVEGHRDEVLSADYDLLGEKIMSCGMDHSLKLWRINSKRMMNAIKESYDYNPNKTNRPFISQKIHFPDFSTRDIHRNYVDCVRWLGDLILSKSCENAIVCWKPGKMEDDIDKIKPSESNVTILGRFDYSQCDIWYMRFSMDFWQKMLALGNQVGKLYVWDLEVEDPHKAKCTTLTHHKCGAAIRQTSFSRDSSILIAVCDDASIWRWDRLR
Chain of Protein cereblon/Polycomb protein EED (Q96SW2 whole entry partner): as the sequence (Q96SW2 whole entry, looked up) above
Chain of Protein cereblon/Polycomb complex protein BMI-1 (P35226 whole entry, looked up): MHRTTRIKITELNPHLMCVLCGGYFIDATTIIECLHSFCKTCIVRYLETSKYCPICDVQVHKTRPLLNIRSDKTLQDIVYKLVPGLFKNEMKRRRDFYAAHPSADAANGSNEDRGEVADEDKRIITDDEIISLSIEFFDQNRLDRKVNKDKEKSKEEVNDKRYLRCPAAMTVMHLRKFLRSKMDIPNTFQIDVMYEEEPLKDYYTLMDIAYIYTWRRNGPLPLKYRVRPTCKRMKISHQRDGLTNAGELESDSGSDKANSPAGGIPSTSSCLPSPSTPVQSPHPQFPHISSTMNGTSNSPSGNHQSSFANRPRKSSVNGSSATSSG
Chain of Protein cereblon/Polycomb complex protein BMI-1 (Q96SW2 whole entry, looked up): as the sequence (Q96SW2 whole entry, looked up) above
T2 sequence (P35226 whole entry, looked up): as the sequence (P35226 whole entry, looked up) above
T2 sequence (P40337 whole entry, looked up): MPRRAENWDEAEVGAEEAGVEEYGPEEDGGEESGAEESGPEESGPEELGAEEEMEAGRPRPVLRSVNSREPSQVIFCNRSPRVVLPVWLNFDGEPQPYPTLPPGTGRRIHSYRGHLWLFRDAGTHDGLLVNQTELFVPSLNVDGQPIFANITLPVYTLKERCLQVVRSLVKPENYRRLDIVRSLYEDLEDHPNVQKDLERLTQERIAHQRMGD
Chain of Protein cereblon/Histone-lysine N-methyltransferase EZH2 (Homo sapiens) (Q15910 whole entry, looked up): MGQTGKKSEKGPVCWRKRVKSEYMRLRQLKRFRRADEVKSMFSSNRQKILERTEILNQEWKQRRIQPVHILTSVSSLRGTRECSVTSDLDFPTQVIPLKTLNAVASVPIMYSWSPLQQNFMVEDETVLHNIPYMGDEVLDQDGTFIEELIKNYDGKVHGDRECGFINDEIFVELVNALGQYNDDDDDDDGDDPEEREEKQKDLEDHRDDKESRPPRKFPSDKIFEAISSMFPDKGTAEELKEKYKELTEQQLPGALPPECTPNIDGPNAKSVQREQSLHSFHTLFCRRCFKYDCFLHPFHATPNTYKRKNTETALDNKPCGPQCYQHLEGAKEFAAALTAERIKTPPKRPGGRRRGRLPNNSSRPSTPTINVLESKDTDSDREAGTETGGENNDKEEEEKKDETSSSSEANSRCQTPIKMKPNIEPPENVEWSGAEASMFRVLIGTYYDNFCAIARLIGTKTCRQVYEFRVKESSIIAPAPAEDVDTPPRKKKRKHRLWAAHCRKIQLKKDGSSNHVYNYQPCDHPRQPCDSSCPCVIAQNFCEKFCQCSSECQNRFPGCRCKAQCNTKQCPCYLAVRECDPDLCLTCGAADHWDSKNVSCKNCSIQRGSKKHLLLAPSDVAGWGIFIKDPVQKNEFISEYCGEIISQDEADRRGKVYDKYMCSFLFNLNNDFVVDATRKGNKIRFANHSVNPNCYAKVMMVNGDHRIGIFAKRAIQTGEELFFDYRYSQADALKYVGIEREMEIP
Chain of Protein cereblon/Histone-lysine N-methyltransferase EZH2 (Homo sapiens) (Q96SW2 whole entry, looked up): as the sequence (Q96SW2 whole entry, looked up) above
T1 sequence (Q96SW2 whole entry): as the sequence (Q96SW2 whole entry, looked up) above
T1 sequence (Q99496 2-336 partner limits assumed): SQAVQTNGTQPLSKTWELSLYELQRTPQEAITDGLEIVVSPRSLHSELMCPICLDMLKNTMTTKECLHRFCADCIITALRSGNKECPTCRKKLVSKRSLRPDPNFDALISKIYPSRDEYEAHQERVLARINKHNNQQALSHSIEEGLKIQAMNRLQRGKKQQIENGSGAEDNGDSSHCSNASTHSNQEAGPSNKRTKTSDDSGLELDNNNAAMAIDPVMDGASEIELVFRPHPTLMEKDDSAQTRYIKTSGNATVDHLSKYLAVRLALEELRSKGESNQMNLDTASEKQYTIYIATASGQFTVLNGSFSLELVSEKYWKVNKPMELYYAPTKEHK
Chain of von Hippel-Lindau disease tumor suppressor/Histone-lysine N-methyltransferase EZH2 (Q15910 whole entry): as the sequence (Q15910 whole entry, looked up) above
Chain of von Hippel-Lindau disease tumor suppressor/Histone-lysine N-methyltransferase EZH2 (P40337 whole entry): as the sequence (P40337 whole entry, looked up) above
Chain of von Hippel-Lindau disease tumor suppressor/Polycomb protein EED (O75530 whole entry): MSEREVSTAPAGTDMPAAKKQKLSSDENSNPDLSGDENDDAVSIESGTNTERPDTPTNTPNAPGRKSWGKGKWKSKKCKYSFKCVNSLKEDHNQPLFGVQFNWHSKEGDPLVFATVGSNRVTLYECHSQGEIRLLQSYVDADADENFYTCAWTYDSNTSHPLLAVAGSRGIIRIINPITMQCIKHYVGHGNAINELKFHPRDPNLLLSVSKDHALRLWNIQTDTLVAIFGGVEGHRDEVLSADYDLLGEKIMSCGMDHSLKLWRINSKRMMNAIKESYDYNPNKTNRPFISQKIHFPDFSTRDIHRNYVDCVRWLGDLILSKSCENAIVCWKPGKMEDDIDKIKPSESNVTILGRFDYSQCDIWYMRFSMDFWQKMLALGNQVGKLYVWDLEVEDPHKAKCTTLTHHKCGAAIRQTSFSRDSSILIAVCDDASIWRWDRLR
Chain of von Hippel-Lindau disease tumor suppressor/Polycomb protein EED (P40337 whole entry): as the sequence (P40337 whole entry, looked up) above
Chain of Polycomb protein EED (O75530 whole entry, the tested form may be a part): as the sequence (O75530 whole entry) above

Structure (SMILES)	Activity [13]	Activity [14]	Activity [15]	Activity [16]	Activity [18]	Activity (K562 [17])	Activity (K562 [19])	further results
CS(=O)(=O)c1ccc(-c2cnc(NCc3ccco3)n3cnnc23)cc1								Activity [1]: inactive; Activity (PC-3M [2]): inactive; Activity (PC-3M [3]): Active; Activity (MDA-MB-468 [4]): Active; Activity (K562 [5]): inactive; Activity (K562 [6]): inactive; Activity (K562 [7]): Active; Activity [8]: inactive; Activity [9]: inactive; Activity (K562 [10]): inactive; Activity (MDA-MB-468 [11]): inactive; Activity [12]: inactive
O=C(CCCCNc1cccc2c1C(=O)N(C1CCC(=O)NC1=O)C2=O)NCCCCN1CCN(c2ccc(-c3cnc(NCc4ccco4)n4cnnc34)cc2)CC1 (stereo unspecified)	inactive	inactive	inactive	inactive	inactive	inactive	inactive	
O=C(CCOCCOCCOCCNc1cccc2c1C(=O)N(C1CCC(=O)NC1=O)C2=O)NCCCCN1CCN(c2ccc(-c3cnc(NCc4ccco4)n4cnnc34)cc2)CC1 (stereo unspecified)	inactive	inactive	inactive	inactive	inactive	inactive	inactive	
O=C(CCCCCNc1cccc2c1C(=O)N(C1CCC(=O)NC1=O)C2=O)NCCCCN1CCN(c2ccc(-c3cnc(NCc4ccco4)n4cnnc34)cc2)CC1 (stereo unspecified)	inactive	inactive	inactive	inactive	inactive	inactive	inactive	
Cc1nc(CCC(=O)NCCCC(=O)N[C@H](C(=O)N2C[C@H](O)C[C@H]2C(=O)NCc2ccc(-c3scnc3C)cc2)C(C)(C)C)ccc1-c1cnc(NCc2c(F)ccc3c2CCO3)n2cnnc12								DC50 [20]: < 1 µM; DC50 [21]: < 0.12 µM
Cc1ncsc1-c1ccc(CNC(=O)[C@@H]2C[C@@H](O)CN2C(=O)[C@@H](NC(=O)CCCCCCNC(=O)CCCCN2CCN(c3ccc(-c4cnc(NCc5ccco5)n5cnnc45)cc3)CC2)C(C)(C)C)cc1								Activity (786-0 [22]): Active; Activity [1]: inactive; Kd (Polycomb protein EED): 3 µM; Activity [8]: inactive; Activity (786-0 [23]): Active; Activity (786-0 [24]): inactive
Cc1ncsc1-c1ccc(CNC(=O)[C@@H]2C[C@@H](O)CN2C(=O)[C@@H](NC(=O)CCCNC(=O)c2ccc(-c3cnc(NCc4ccco4)n4cnnc34)cc2)C(C)(C)C)cc1								Activity (K562 [6]): inactive; Activity (K562 [7]): Active; Activity [9]: inactive; Activity (K562 [25]): inactive; Activity [12]: inactive
O=C(CCOCCOCCNc1cccc2c1C(=O)N(C1CCC(=O)NC1=O)C2=O)NCCCCN1CCN(c2ccc(-c3cnc(NCc4ccco4)n4cnnc34)cc2)CC1 (stereo unspecified)	Active	inactive	inactive	Active	Active	Active	inactive	
O=C(CCCNc1cccc2c1C(=O)N(C1CCC(=O)NC1=O)C2=O)NCCCCN1CCN(c2ccc(-c3cnc(NCc4ccco4)n4cnnc34)cc2)CC1 (stereo unspecified)	inactive	inactive	inactive	inactive	inactive	inactive	inactive	

More lines, main results first:

Activity [13]	Activity [14]	Activity [15]	Activity [16]	Activity [18]	Structure (SMILES)	Activity (K562 [17])	Activity (K562 [19])	further results
inactive	inactive	inactive	inactive	inactive	O=C(CCOCCNc1cccc2c1C(=O)N(C1CCC(=O)NC1=O)C2=O)NCCCCN1CCN(c2ccc(-c3cnc(NCc4ccco4)n4cnnc34)cc2)CC1 (stereo unspecified)	inactive	inactive	
inactive	inactive	inactive	inactive	inactive	O=C(CCNc1cccc2c1C(=O)N(C1CCC(=O)NC1=O)C2=O)NCCCCN1CCN(c2ccc(-c3cnc(NCc4ccco4)n4cnnc34)cc2)CC1 (stereo unspecified)	inactive	inactive	
inactive	inactive	inactive	inactive	inactive	O=C(CCOCCOCCOCCOCCNc1cccc2c1C(=O)N(C1CCC(=O)NC1=O)C2=O)NCCCCN1CCN(c2ccc(-c3cnc(NCc4ccco4)n4cnnc34)cc2)CC1 (stereo unspecified)	inactive	inactive	
